# Test results reported in EP0935964A1, “Pharmaceutical compositions containing NSAIDs and piperine” (PANACEA BIOTEC LIMITED, priority 1998, dated 1999).
# Like-named read-outs stand apart in the source and are kept apart here.
# Key:
# [1] = formulations containing Piperine compared with those which did not contain Piperine; cited from earlier work
# [2] = Plasma levels of Nimesulide in rats after oral administration of the compositions (Experiment I, HPLC); type: in vivo, albino rats
# Procedure: The rats were housed 5 per cage with food and water provided ad libidum. On the day of experimentation the rats were randomised into ten batches of 5 rats each. Four groups were formed. […] Group II consisted of four batches of five rats each. […] Rats of batch I from Group II were sacrificed 60 minutes post treatment after Chloroform anaesthesia. […] Blood was collected from the rats from the ventricle into heparinised tubes. Group III consisted of one batch of 5 rats, which received only Piperine at a dose level of 1.0mg/kg body wt. […] Blood was collected from the rats from the ventricle into heparinised tubes. Group IV consisted of 4 batches of 5 rats each. […] Rats of batch 1 from Group IV were sacrificed 60 minutes post treatment after Chloroform anaesthesia. […] Blood was collected from the rats from the ventricle into heparinised tubes. The blood samples were centrifuged at 3700 rpm and the plasma separated. […] Extracted benzene was evaporated in a water bath at 95°C and reconstituted with 100 µl of mobile phase and 10 µl was injected into the HPLC. Waters HPLC fitted with C18 µ Bondapack was used along with Waters UV-Vis detector (254nm). […] Unpaired student T test was applied on the data. Level of significance was fixed at p < 0.05.
# [3] = test system: acetic acid induced writhing; conditions: mice, n = 8, Nimesulide 10mg/kg
# Procedure: Pharmacokinetic studies were also performed in rats. […] The study design for acetic acid induced writhing in mice was as follows : Table II
# [4] = rats, oral, Nimesulide 10 mg/kg (with Piperine 10mg/kg in the combination), n = 5
# Procedure: The single test point pharmacokinetic studies were performed in two groups of rats. […] Rats were sacrificed at 90 minutes. post treatment and blood samples were analysed by HPLC.
# [5] = in vivo; cited from earlier work
# plasma proteins = conditions: cited from earlier work
# [6] = cited from earlier work
# [7] = cited from earlier work; remark: listed apart in the source
smiles,measurement,setting,value
NNC(=O)c1ccncc1 [Isoniazid],mean increase in AUC,[1],131%
"CS(=O)(=O)Nc1ccc([N+](=O)[O-])cc1Oc1ccccc1 [Nimesulide, N-(4-nitro, 2-phenoxyphenyl) methanesulfonamide]",Concentration of the drug in plasma,"[2]; Nimesulide alone 1.8 mg/kg, 240 min post treatment",4.6 ± 1.4 kg/mL
same,Plasma levels of Nimesulide,"[2]; oral suspension, Nimesulide 1.8 mg/kg (with Piperine 1.0 mg/kg in the combination), 60 min. post treatment",5800 ± 1700 µg/mL
same,Plasma levels of Nimesulide,"[2]; oral suspension, Nimesulide 1.8 mg/kg (with Piperine 1.0 mg/kg in the combination), 120 min. post treatment",7900 ± 2300 µg/mL
same,Plasma levels of Nimesulide,"[2]; oral suspension, Nimesulide 1.8 mg/kg (with Piperine 1.0 mg/kg in the combination), 240 min. post treatment",4600 ± 1400 µg/mL
same,Plasma levels of Nimesulide,"[2]; oral suspension, Nimesulide 1.8 mg/kg (with Piperine 1.0 mg/kg in the combination), 360 min. post treatment",2200 ± 1100 µg/mL
same,% PROTECTION,[3],54%
same,Plasma concentration (90 min post treatment),[4],8818 µg/mL
same,dose excreted unchanged in the urine,[5],1-3%
same,bound to plasma proteins,plasma proteins,99%
"O=C(/C=C/C=C/c1ccc2c(c1)OCO2)N1CCCCC1 [Piperine, (E, E) 1-[5-(1,3-benzodioxyl-5-yl)-1-oxo-2,4-pentadenyl] piperidine]",Plasma levels of Nimesulide,"[2]; only Piperine 1.0 mg/kg, no Nimesulide, column 120 min.",Nil
same,pKa,[6],12.22
same,solubility,"[7]; in benzene, chloroform, ether, ethyl acetate, dichloromethane, alcohol, acetic acid",soluble
same,solubility,"[7]; in water, pet. ether",insoluble
NC(=O)c1cnccn1 [Pyrazinamide],mean increase in AUC,[1],36%
CO[C@H]1/C=C/O[C@@]2(C)Oc3c(C)c(O)c4c(O)c(c(/C=N/N5CCN(C)CC5)c(O)c4c3C2=O)NC(=O)/C(C)=C\C=C\[C@H](C)[C@H](O)[C@@H](C)[C@@H](O)[C@@H](C)[C@H](OC(C)=O)[C@@H]1C [Rifampicin],mean increase in AUC,[1],37.6%
